Laboratory results published in patent publication US7923473B2, “Aromatic compounds and their use in medical applications” (Revotar Biopharmaceuticals AG, priority 2005, dated 2011).

Columns and labels:
[1] = molecular target: human L-Selectin-IgG-chimera (Homo sapiens, UniProt P14151); test: Sialyl Lewis^x Tyrosine Sulfate Assay (sLe^x TSA), L-selectin; details: inhibition of binding of selectin chimera to sLe^x-tyrosine sulfate polyacrylamide ligand complex
Method: (§1) Compounds of the present invention are assayed on a molecular level for their ability to inhibit the binding of P-, L-, or E-selectin chimeric molecules to sLe^x and tyrosinesulfate residues linked to a polymeric matrix as a PSGL-1 substitute. IC50-values are determined.
(§2) Microtiter plates are coated overnight in carbonate buffer pH9.6 with goat anti human Fc mAB (10 μg/ml). After washing in assay buffer (25 mM 4-(2-hydroxyethyl)-1-piperazineethanesulfonic acid (HEPES), 150 mM NaCl, 1 mM CaCl2 pH7.4) and blocking (3% bovine serum albumin (BSA) in assay buffer) plates are incubated for 2 h at 37° C. with human P-Selectin-IgG-chimera (0.61 nM respectively 150 ng/mL) or human L-Selectin-IgG-chimera (0.61 nM respectively 89 ng/mL) or human E-Selectin-IgG-chimera (0.61 nM respectively 131 ng/mL). 5 μl of sLe^x-tyrosine sulfate polyacrylamide (1 mg/ml) carrying 15% sLe^x, 10% Tyrosine-sulfate and 5% biotin is complexed with 20 μl Streptavidin-Peroxidase solution (1 mg/ml) and 25 μl assay buffer without CaCl2. For use in the assay, the ligand complex is diluted 1:10000 in assay buffer and further diluted 1:1 with varying amounts of compounds in assay buffer incl. 2% DMSO. This mixture is added to the wells precoated with E- or P-selectin. After incubation for 2 h at 37° C., wells are washed for six times with in assay buffer incl. 0.005% Polyoxyethylenesorbitan monolaurate (TWEEN 20), developed for 10-15 min with 20 μl 3,3′,5,5′-tetramethylbenzidine (TMB)/H202 substrate solution and stopped with 20 μl 1 M H2SO4. Bound sLe^x-Tyrosine sulfate ligand complex is determined by measuring optical density at 450 nm vs. 620 nm in a Fusion alpha-FP reader (sold from Packard Bioscience, Dreieich, Germany).

[2] = molecular target: T1, human E-Selectin-IgG-chimera (Homo sapiens, UniProt P16581); test: Sialyl Lewis^x Tyrosine Sulfate Assay (sLe^x TSA), E-selectin; details: inhibition of binding of selectin chimera to sLe^x-tyrosine sulfate polyacrylamide ligand complex
T1 sequence (P16581 with tags, fused parts or gaps limits assumed): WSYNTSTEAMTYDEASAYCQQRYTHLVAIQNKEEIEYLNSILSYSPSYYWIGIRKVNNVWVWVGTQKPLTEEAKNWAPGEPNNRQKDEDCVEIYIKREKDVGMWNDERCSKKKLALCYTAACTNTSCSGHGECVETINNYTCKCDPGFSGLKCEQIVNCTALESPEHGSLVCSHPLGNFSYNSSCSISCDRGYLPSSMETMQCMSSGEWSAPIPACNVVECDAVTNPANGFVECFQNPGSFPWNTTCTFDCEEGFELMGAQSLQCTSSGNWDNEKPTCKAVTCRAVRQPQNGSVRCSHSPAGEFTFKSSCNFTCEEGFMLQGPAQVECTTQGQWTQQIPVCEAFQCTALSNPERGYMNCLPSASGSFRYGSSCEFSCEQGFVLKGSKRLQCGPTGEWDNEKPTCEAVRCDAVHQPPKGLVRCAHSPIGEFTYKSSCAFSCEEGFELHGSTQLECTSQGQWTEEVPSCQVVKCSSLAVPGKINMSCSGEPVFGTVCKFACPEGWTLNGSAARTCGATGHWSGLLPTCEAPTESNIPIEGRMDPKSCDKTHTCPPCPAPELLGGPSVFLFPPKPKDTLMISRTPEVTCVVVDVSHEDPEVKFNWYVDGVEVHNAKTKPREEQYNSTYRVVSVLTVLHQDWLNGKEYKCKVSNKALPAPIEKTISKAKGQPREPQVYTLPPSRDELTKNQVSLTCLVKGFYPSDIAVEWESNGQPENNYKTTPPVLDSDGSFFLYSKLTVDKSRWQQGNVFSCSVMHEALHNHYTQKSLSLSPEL
Method: as §1, §2

[3] = molecular target: T2, human P-Selectin-IgG-chimera (Homo sapiens, UniProt P16109); test: Sialyl Lewis^x Tyrosine Sulfate Assay (sLe^x TSA), P-selectin; details: inhibition of binding of selectin chimera to sLe^x-tyrosine sulfate polyacrylamide ligand complex
T2 sequence (P16109 with tags, fused parts or gaps limits assumed): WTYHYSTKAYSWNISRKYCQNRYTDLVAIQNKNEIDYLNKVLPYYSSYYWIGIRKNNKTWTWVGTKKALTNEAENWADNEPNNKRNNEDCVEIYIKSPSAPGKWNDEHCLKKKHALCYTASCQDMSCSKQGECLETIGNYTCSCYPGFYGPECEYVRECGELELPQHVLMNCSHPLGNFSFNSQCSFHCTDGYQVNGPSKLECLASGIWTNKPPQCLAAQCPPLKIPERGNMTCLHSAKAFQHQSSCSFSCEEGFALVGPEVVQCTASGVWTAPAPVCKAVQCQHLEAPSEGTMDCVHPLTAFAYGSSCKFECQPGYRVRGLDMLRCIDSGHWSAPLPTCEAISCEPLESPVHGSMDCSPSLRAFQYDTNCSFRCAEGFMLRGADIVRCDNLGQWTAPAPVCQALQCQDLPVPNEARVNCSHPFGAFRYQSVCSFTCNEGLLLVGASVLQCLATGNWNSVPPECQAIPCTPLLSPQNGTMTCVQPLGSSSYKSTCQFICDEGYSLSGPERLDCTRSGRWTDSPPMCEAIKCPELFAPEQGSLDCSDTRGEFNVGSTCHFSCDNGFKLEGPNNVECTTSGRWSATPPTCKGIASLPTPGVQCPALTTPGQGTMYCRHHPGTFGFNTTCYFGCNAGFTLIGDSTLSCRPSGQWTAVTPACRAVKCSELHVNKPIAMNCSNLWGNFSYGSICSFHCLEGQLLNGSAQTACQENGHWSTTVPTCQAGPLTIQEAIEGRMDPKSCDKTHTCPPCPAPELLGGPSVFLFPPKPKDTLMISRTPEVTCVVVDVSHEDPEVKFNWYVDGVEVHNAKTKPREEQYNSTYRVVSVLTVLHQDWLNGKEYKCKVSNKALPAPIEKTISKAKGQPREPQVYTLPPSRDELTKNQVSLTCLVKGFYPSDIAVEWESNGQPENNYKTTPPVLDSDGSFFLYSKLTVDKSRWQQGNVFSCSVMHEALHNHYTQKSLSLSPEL
Method: as §1, §2

[4] = molecular target: T1, human E-Selectin-IgG-chimera; test: Flow chamber assay / cell adhesion and rolling under flow conditions, E-selectin; format: cell-based; details: 125 μM compound; HL-60 cells; flow shear 1 dyne/cm^2; attached cells after 5 minutes continuous flow
Method: (§3) To assess the capability of compounds to inhibit cell binding under dynamic conditions resembling the flow in a blood vessel, flow chamber assays addressing/testing binding of HL-60 cells/various cell lines to P-selectin, L-selectin and E-selectin chimeric molecules are performed.
(§4) Cell attachment under flow conditions are determined using a parallel flow chamber system. A 35 mm polystyrene culture dish is coated for 1 hour at room temperature with coating buffer (50 mM tris-(hydroxymethyl)aminomethane buffer (Tris), 150 mM NaCl, 2 mM CaCl2; pH 7.4) containing human E- or P-selectin-IgG chimera at concentrations of 2.5 μg/ml or 10 μg/ml, respectively. After removal of the coating solution non specific binding sites are blocked for an additional hour with 1% BSA in coating buffer at room temperature. After washing with assay buffer (“Roswell Park Memorial Institute 1640” (RPMI 1640)+10 mM HEPES) the dish is fitted into a parallel plate laminar flow chamber (sold from Glycotech, Rockville, Md.) and mounted on an inverted phase-contrast microscope (sold from Olympus, Hamburg, Germany) equipped with a CCD camera (JVC) that is connected to a PC. Employing a peristaltic pump (sold from Ismatec, Wertheim-Mondfeld, Germany) the re-circulating system is equilibrated with assay buffer containing 125 μM compound or vehicle control (DMSO). Cells (1 million/ml) are added to the chamber and allowed to distribute for 2 minutes at a high flow rate. The flow rate is then decreased resulting in a calculated flow shear of 1 dyne/cm^2. Video sequences of 10 low power fields are digitally recorded after 5 minutes continuous flow. The percentage of modulation is calculated from the mean number of cells per field that attached to the coated dish surface in the presence versus absence of compound of […].

[5] = molecular target: T2, human P-Selectin-IgG-chimera; test: Flow chamber assay / cell adhesion and rolling under flow conditions, P-selectin; format: cell-based; details: 125 μM compound; HL-60 cells; flow shear 1 dyne/cm^2; attached cells after 5 minutes continuous flow
Method: as §3, §4

human L-Selectin-IgG-chimera, sequence (P14151 with tags, fused parts or gaps limits assumed): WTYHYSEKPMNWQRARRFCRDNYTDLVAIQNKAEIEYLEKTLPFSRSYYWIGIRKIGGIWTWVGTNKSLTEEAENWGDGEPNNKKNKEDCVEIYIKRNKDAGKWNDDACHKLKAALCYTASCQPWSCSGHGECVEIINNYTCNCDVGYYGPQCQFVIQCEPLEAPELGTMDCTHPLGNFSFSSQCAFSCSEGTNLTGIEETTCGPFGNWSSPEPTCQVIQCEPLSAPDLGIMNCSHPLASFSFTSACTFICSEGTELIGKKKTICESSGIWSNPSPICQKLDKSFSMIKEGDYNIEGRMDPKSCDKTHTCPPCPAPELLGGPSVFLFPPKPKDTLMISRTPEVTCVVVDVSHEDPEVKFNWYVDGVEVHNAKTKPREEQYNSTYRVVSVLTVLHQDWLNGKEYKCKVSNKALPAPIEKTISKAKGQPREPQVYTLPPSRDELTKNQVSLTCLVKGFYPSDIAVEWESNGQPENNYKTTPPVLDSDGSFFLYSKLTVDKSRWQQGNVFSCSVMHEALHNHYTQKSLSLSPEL

`O=C(O)Cc1cccc(-c2cc(CCCCCCc3ccc(O[C@H]4O[C@H](CO)[C@@H](O)[C@H](O)[C@@H]4O)c(-c4cccc(CC(=O)O)c4)c3)ccc2O[C@H]2O[C@H](CO)[C@@H](O)[C@H](O)[C@@H]2O)c1` [Bimosiamose, bimosiamose, reference compound] gave an IC50 [1] greater than 500 µM.

`COc1cc(CCC(=O)Nc2cccc(N)c2)cc(OC)c1OC` [Compound 60] was tested, and the IC50 [2] was 18.2 µM, the IC50 [3] was 15 µM and the IC50 [1] was 12.8 µM.

In the case of `COc1ccc(-c2cccc(C(=O)Nc3ccccc3-c3ccc(CC(=O)O)s3)c2)c(OC)c1OC` [Compound 61], the IC50 [2] is reported as greater than 500 µM, the IC50 [3] is reported as 186 µM and the IC50 [1] is reported as 385 µM.

In the case of `CCOC(=O)c1cc(-c2ccc(NC(=O)Cc3ccc(OC)c(OC)c3OC)cc2)oc1C` [Compound 62], the IC50 [2] is reported as 74.7 µM, the IC50 [3] is reported as 46.4 µM and the IC50 [1] is reported as 45.3 µM.

Work on `COc1ccc(-c2cc(C(=O)Nc3ccccc3-c3ccc(CC(=O)O)s3)cc([N+](=O)[O-])c2)c(OC)c1OC` [Compound 63] yielded an IC50 [2] greater than 500 µM, an IC50 [3] of 28.5 µM and an IC50 [1] of 76.1 µM. For the same compound, the “E-Selectin normalized ratio of %-inhibition of compound divided by %-inhibition of bimosiamose” value [4] was 1.46 Ratio and the “P-Selectin normalized ratio of %-inhibition of compound divided by %-inhibition of bimosiamose” value [5] was 1.06 Ratio.

With `COc1ccc(-c2cccc(C(=O)Nc3ccccc3-c3ccc(C(=O)O)s3)c2)c(OC)c1OC` [Compound 64] the IC50 [2] was greater than 500 µM, the IC50 [3] was 107 µM and the IC50 [1] was 383 µM. The “E-Selectin normalized ratio of %-inhibition of compound divided by %-inhibition of bimosiamose” value [4] was 1.27 Ratio and the “P-Selectin normalized ratio of %-inhibition of compound divided by %-inhibition of bimosiamose” value [5] was 1.01 Ratio.

For `COc1ccc(-c2cccc(C(=O)Nc3ccccc3-c3ccc(Cc4nnn[nH]4)s3)c2)c(OC)c1OC` [Compound 87, 2′,3′,4′-Trimethoxy-biphenyl-3-carboxylic acid {2-[5-(1H-tetrazol-5-ylmethyl)-thiophen-2-yl]-phenyl}-amide], the IC50 [3] was 32.6 µM, the IC50 [1] was 59.5 µM and the “E-Selectin normalized ratio of %-inhibition of compound divided by %-inhibition of bimosiamose” value [4] was 1.23 Ratio. For the same compound, the “P-Selectin normalized ratio of %-inhibition of compound divided by %-inhibition of bimosiamose” value [5] was 2.62 Ratio.
